Source: US20150331992A1, “CANCER PROGNOSIS AND THERAPY BASED ON SYNTHEIC LETHALITY” (Ramot at Tel-Aviv University Ltd., priority 2014, published 2015)

tested on: VHL-deficient and VHL-restored renal carcinoma cells (RCC4); experiment: Growth inhibition of VHL-deficient vs VHL-restored renal cells by drugs at mid-effective concentration; assay type: cell-based; conditions: mid-effective concentration of each drug; both cell lines in triplicates; FIG. 5
Procedure: A range of concentrations for each drug were tested to identify a suitable working concentration in which there was an effect on cells growth, but not complete death (which is more likely to be due to non-specific toxicity).

Row | Compound | Sensitivity (percentage of growth inhibition) of VHL-deficient cells compared to isogenic cells in which pVHL was restored
1 | CN(C)CCC=C1c2ccccc2CCc2ccccc21 [Amitriptyline] | significantly more sensitive
2 | Nc1ccncc1 [Dalfampridine] | significantly more sensitive
3 | CN(C)CCCN1c2ccccc2CCc2ccccc21 [Imipramine] | significantly more sensitive
4 | C[N+]1(CCCCC[N+]2(C)CCCC2)CCCC1 [Pentolinium] | significantly more sensitive
5 | COc1ccc(CCN(C)CCCC(C#N)(c2ccc(OC)c(OC)c2)C(C)C)cc1OC (centres unmarked) [Verapamil] | significantly more sensitive
